# Data taken from patent publication US8927130B2, “Electrolyte for redox flow battery and redox flow battery including the same” (Samsung Electronics Co., Ltd., priority 2011, dated 2015).
# Assay: Cyclic voltammetry of electrolytes for 100 cycles
# Format: physicochemical
# Settings: in the electrolytes of Examples 1 and 2 (GBL, 0.5 M TEABF4), cyclic voltammetry 100 cycles
# Experimental: A current value as a function of potential was measured for 100 cycles by using each of the electrolytes of Examples 1 and 2, at a potential scan rate of 10 mV/s and in a potential scan range of about −2 V to about 1.25 V. A cell for measuring the cyclic voltammogram included an Ag/Ag^+ electrode in which 0.3 M of AgNO3 was dissolved in acetonitrile as a solvent as a reference electrode, carbon felt as a working electrode, and platinum as a counter electrode. The measurement results are illustrated in FIGS. 6A and 6B.
smiles,measurement,value
"O=S(=O)([N-]S(=O)(=O)C(F)(F)F)C(F)(F)F.O=S(=O)([N-]S(=O)(=O)C(F)(F)F)C(F)(F)F.[Ni+2].c1ccc(-c2ccccn2)nc1.c1ccc(-c2ccccn2)nc1.c1ccc(-c2ccccn2)nc1 [Preparation Example 1, Ni(bpy)3(TFSI)2]",stability of the redox couple of the metal salt in the electrolyte,stable
